“And” between values parts separate entries of the source, which are not always exact repeats. Identical values can stand only once. Inconclusive results and toxic doses are left out. Rule for the calls: active = survival T/C of 150% or more; inactive = T/C below 125% in these data. Square brackets hold non-standard residues; d marks the D form. Peptide text beside a SMILES is read from it. ξ: configuration not given here. Ac5c = NC1(C(=O)O)CCCC1; ξS = NC(CO)C(=O)O
Test system: P388 leukemia ip, CD2F1 mice, survival T/C
Test: NCI In Vivo Anticancer Drug Screen. Data for tumor model P388 Leukemia (intraperitoneal) in CD2F1 (CDF1) mice
Details: endpoint: median survival time, higher = longer survival
In short: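 Mice carrying the transplanted tumor received test compound or vehicle. Survival was recorded in each group, and the value is the treated-group measurement divided by that of the vehicle-treated control group.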

[1] = dose: 12.5 mg/kg/injection, schedule: Q01DX009 (ip), vehicle: saline with Tween-80
[2] = dose: 25.0 mg/kg/injection, schedule: Q01DX009 (ip), vehicle: saline with Tween-80
[3] = dose: 50.0 mg/kg/injection, schedule: Q01DX009 (ip), vehicle: saline with Tween-80
[4] = dose: 50.0 mg/kg/injection, schedule: Q01DX009 (ip), vehicle: saline
[5] = dose: 60.0 mg/kg/injection, schedule: Q01DX005 (ip), vehicle: saline with Tween-80
[6] = dose: 50.0 mg/kg/injection, schedule: Q01DX009 (ip), vehicle: Klucel (hydroxypropylcellulose) (HPC)
[7] = dose: 100.0 mg/kg/injection, schedule: Q01DX009 (ip), vehicle: Klucel (hydroxypropylcellulose) (HPC)
[8] = dose: 200.0 mg/kg/injection, schedule: Q01DX009 (ip), vehicle: Klucel (hydroxypropylcellulose) (HPC)
[9] = dose: 100.0 mg/kg/injection, schedule: Q01DX009 (ip), vehicle: saline with Tween-80
[10] = dose: 200.0 mg/kg/injection, schedule: Q01DX009 (ip), vehicle: saline with Tween-80
[11] = dose: 50.0 mg/kg/injection, schedule: Q04DX003 (ip), vehicle: saline with Tween-80
[12] = dose: 100.0 mg/kg/injection, schedule: Q04DX003 (ip), vehicle: saline with Tween-80
[13] = dose: 120.0 mg/kg/injection, schedule: Q01DX005 (ip), vehicle: saline with Tween-80
[14] = dose: 240.0 mg/kg/injection, schedule: Q01DX005 (ip), vehicle: saline with Tween-80
[15] = dose: 6.25 mg/kg/injection, schedule: Q01DX009 (ip), vehicle: saline
[16] = dose: 1.56 mg/kg/injection, schedule: Q01DX009 (ip), vehicle: saline
[17] = dose: 3.12 mg/kg/injection, schedule: Q01DX009 (ip), vehicle: saline

Measured: T/C

COc1cc2c(cc1OC)C(NC=O)CCC2 (centres undefined)
inactive: dose: 25.0 mg/kg/injection, schedule: Q01DX009 (ip), vehicle: other 101 % of control | dose: 50.0 mg/kg/injection, schedule: Q01DX009 (ip), vehicle: other 104 % of control | dose: 100.0 mg/kg/injection, schedule: Q01DX009 (ip), vehicle: other 100 % of control | dose: 200.0 mg/kg/injection, schedule: Q01DX009 (ip), vehicle: other 101 % of control | dose: 400.0 mg/kg/injection, schedule: Q01DX009 (ip), vehicle: other 86 % of control

O=C1c2ccccc2C(=O)N1S(=O)(=O)C/C=C/CCl
inactive: [1] 94 % of control | [2] 97 % of control | [3] 105 % of control | [4] 110 % of control | dose: 100.0 mg/kg/injection, schedule: Q01DX009 (ip), vehicle: saline 103 % of control | dose: 200.0 mg/kg/injection, schedule: Q01DX009 (ip), vehicle: saline 108 % of control

c1ccc2c(c1)N=C(NNC1=Nc3ccccc3SC1)CS2
inactive: dose: 15.0 mg/kg/injection, schedule: Q01DX005 (ip), vehicle: saline with Tween-80 95 % of control | dose: 30.0 mg/kg/injection, schedule: Q01DX005 (ip), vehicle: saline with Tween-80 92 % of control | [5] 88 % of control

Cc1nc(Nc2ccc(F)cc2)c2c(-c3ccccc3)c[nH]c2n1
inactive: dose: 50.0 mg/kg/injection, schedule: Q01DX005 (ip), vehicle: Klucel (hydroxypropylcellulose) (HPC) 90 % of control | dose: 100.0 mg/kg/injection, schedule: Q01DX005 (ip), vehicle: Klucel (hydroxypropylcellulose) (HPC) 88 % of control

Cc1ccc2nc(NC(=S)NCCNC(=S)Nc3ccc4cc(C)ccc4n3)ccc2c1
inactive: [6] 94 % of control | [7] 92 % of control | [8] 90 % of control

C(=C\c1ccncc1)/c1ccncc1
inactive: [1] 90 % of control | [2] 90 % of control | [3] 101 % of control | [7] 89 % of control | [9] 107 % of control | [8] 92 % of control

Cc1nc2c(O)ccc(O)c2nc1C
inactive: dose: 3.75 mg/kg/injection, schedule: Q01DX009 (ip), vehicle: saline with Tween-80 99 % of control | dose: 3.75 mg/kg/injection, schedule: Q04DX003 (ip), vehicle: saline with Tween-80 100 % of control | dose: 7.5 mg/kg/injection, schedule: Q01DX009 (ip), vehicle: saline with Tween-80 94 % of control | dose: 7.5 mg/kg/injection, schedule: Q04DX003 (ip), vehicle: saline with Tween-80 99 % of control | dose: 15.0 mg/kg/injection, schedule: Q01DX009 (ip), vehicle: saline with Tween-80 88 % of control | dose: 15.0 mg/kg/injection, schedule: Q04DX003 (ip), vehicle: saline with Tween-80 106 % of control | dose: 30.0 mg/kg/injection, schedule: Q01DX009 (ip), vehicle: saline with Tween-80 95 % of control | dose: 30.0 mg/kg/injection, schedule: Q04DX003 (ip), vehicle: saline with Tween-80 109 % of control | dose: 60.0 mg/kg/injection, schedule: Q01DX009 (ip), vehicle: saline with Tween-80 110 % of control | dose: 60.0 mg/kg/injection, schedule: Q04DX003 (ip), vehicle: saline with Tween-80 109 % of control

CCN(CC)CC(=O)Nc1ccc2c(c1)C(=O)c1cc(NC(=O)CN(CC)CC)ccc1-2
inactive: [3] 86 % of control | [9] 94 % of control | [10] 96 % of control

O=c1[nH]cc(S)c(=O)[nH]1
inactive: [2] 105 % of control | [3] 100 % of control | [11] 100 % of control | [9] 110 % of control | [12] 100 % of control

Cc1cccc(/C(=C\c2ccc([N+](=O)[O-])cc2)C(=O)Nc2ccc(S(=O)(=O)F)c(C)c2)c1
inactive: dose: 60.0 mg/kg/injection, schedule: Q01DX005 (ip), vehicle: Klucel (hydroxypropylcellulose) (HPC) 88 % of control | dose: 120.0 mg/kg/injection, schedule: Q01DX005 (ip), vehicle: Klucel (hydroxypropylcellulose) (HPC) 86 % of control

Nc1n[n+](-c2ccc(Cl)cc2)no1
active: dose: 25.0 mg/kg/injection, schedule: Q01DX009 (ip), vehicle: water 155 % of control
inactive: dose: 3.13 mg/kg/injection, schedule: Q01DX009 (ip), vehicle: water 108 % of control | dose: 6.25 mg/kg/injection, schedule: Q01DX009 (ip), vehicle: water 102 % of control and 124 % of control | dose: 12.5 mg/kg/injection, schedule: Q01DX009 (ip), vehicle: water 124 % of control

O=C([CH-]C(=O)C(F)(F)F)c1ccco1.O=C([CH-]C(=O)C(F)(F)F)c1ccco1.O=C([CH-]C(=O)C(F)(F)F)c1ccco1.[Ru+3]
inactive: [5] 100 % of control | [13] 97 % of control | [14] 89 % of control

N#Cc1ncc(C(Cl)Cl)nc1Cl
inactive: dose: 25.0 mg/kg/injection, schedule: Q01DX009 (ip), vehicle: saline 108 % of control | [4] 106 % of control

CCC(=O)NC(Cc1cccc(F)c1)C(=O)O (centres undefined)
inactive: [15] 112 % of control | dose: 12.5 mg/kg/injection, schedule: Q01DX009 (ip), vehicle: saline 102 % of control

Cc1cc2cc(C3CCNCC3)oc2cc1C
inactive: dose: 12.5 mg/kg/injection, schedule: Q01DX009 (ip), vehicle: Klucel (hydroxypropylcellulose) (HPC) 100 % of control | dose: 25.0 mg/kg/injection, schedule: Q01DX009 (ip), vehicle: Klucel (hydroxypropylcellulose) (HPC) 100 % of control and 109 % of control | [6] 107 % of control and 109 % of control and 119 % of control

COCCNCCN1CCN(CCCN2c3ccccc3Sc3ccc(C(F)(F)F)cc32)CC1
inactive: [16] 104 % of control | [17] 100 % of control | [15] 107 % of control

Cc1ccc(C)c(N=Nc2ccc(O)cc2)c1
inactive: [2] 100 % of control | [3] 109 % of control | [11] 104 % of control | [9] 100 % of control | [12] 100 % of control

CCOC(=O)C(CC1=CS(=O)(=O)c2ccc(Cl)cc21)(NC(C)=O)C(=O)OCC
inactive: [6] 96 % of control | [7] 91 % of control | [8] 87 % of control

COCCCn1cnn2c(=O)c3ccccc3nc2c1=O
inactive: [5] 103 % of control | [13] 99 % of control | [14] 100 % of control

O=C(CCl)NC(Cc1cccc(F)c1)C(=O)O (centres undefined)
inactive: [16] 97 % of control | [17] 97 % of control | [15] 100 % of control and 96 % of control

O=c1c2ccccc2[nH]c2cc([N+](=O)[O-])cc([N+](=O)[O-])c12
inactive: dose: 50.0 mg/kg/injection, schedule: Q01DX005 (ip), vehicle: saline with Tween-80 90 % of control | dose: 100.0 mg/kg/injection, schedule: Q01DX005 (ip), vehicle: saline with Tween-80 90 % of control | dose: 200.0 mg/kg/injection, schedule: Q01DX005 (ip), vehicle: saline with Tween-80 98 % of control

CCOC(=O)C(CO)NC(=O)C1(NC(C)=O)CCCC1 (centres undefined) (Ac-[Ac5c]-[ξS]-OEt)
inactive: dose: 50.0 mg/kg/injection, schedule: Q01DX005 (ip), vehicle: saline 100 % of control | dose: 100.0 mg/kg/injection, schedule: Q01DX005 (ip), vehicle: saline 100 % of control | dose: 200.0 mg/kg/injection, schedule: Q01DX005 (ip), vehicle: saline 100 % of control

CCCCCCCCCc1ccc(OC(=O)CCC)cc1
inactive: [7] 102 % of control | [8] 97 % of control | dose: 400.0 mg/kg/injection, schedule: Q01DX009 (ip), vehicle: Klucel (hydroxypropylcellulose) (HPC) 99 % of control

Cc1cc(N=Cc2cccs2)cc(Cl)c1O
inactive: dose: 100.0 mg/kg/injection, schedule: Q04DX003 (ip), vehicle: saline 101 % of control | dose: 200.0 mg/kg/injection, schedule: Q04DX003 (ip), vehicle: saline 99 % of control | dose: 400.0 mg/kg/injection, schedule: Q04DX003 (ip), vehicle: saline 98 % of control

CC(=O)NC(CCC(C)(C)SCc1ccccc1)C(=O)O (centres undefined)
inactive: [3] 91 % of control | [9] 94 % of control | [10] 103 % of control

COc1ccc(N=c2nc3n4c(c(Br)cc(Br)c4n2)NC(C(Br)(Br)Br)=N3)cc1
inactive: [5] 90 % of control | [13] 92 % of control | [14] 100 % of control

Source: PubChem BioAssay AID330 (DTP/NCI, 2004)
